Results reported in patent US12492373B2, “Production method for nerve tissue” (Racthera Co., Ltd., priority 2014, dated 2025).

System: human iPS cells (1231A3 strain)
Test: Form of cell aggregate in suspension culturing, bright field observation (good / medium / bad form)
Type: cell-based
Conditions: for cell aggregates with a bad form (not spherical, collapsed) / cell aggregates with a good form (spherical, smooth surface and dense inside) / cell aggregates with a medium form (spherical, forming cyst): day 6
Description: (§1) The above human iPS cells were treated with the cell dispersion solution by using TrypLE Select (Life Technologies), further dispersed into single cells by pipetting operation, and the above human iPS cells dispersed into single cells were suspended in 100 μl of a serum-free medium at 1.2×10^4 cells per well of a non-cell-adhesive 96-well culture plate (PrimeSurface 96V-bottom plate, manufactured by SUMITOMO BAKELITE), and subjected to suspension culturing at 37° C., 5% CO2. As the serum-free medium (gfCDM+KSR) therefor, a serum-free medium which is a 1:1 mixture of F-12 medium and IMDM medium supplemented with 10% KSR, 450 μM 1-monothioglycerol, and 1× Chemically defined lipid concentrate was used. At the time of the start of suspension culturing (day 0 after the start of suspension culturing, start of step 2), Y27632 (final concentration 20 μM) was added to the above serum-free medium. By day 2 after the start of suspension culturing, a cell aggregate was formed under both preconditioning conditions and conditions without preconditioning (step 2 completed, step 3 start). On day 3 after the start of suspension culturing, a serum-free medium (50 μl) free of Y27632 was added.
The thus-prepared cells on day 6 after the start of suspension culturing were subjected to bright field observation under an inverted microscope (KEYENCE) (FIG. 3).
Furthermore, bright field observation of the form of the cell aggregate on day 6 after the start of suspension culturing was performed under an inverted microscope, and the form was categorized into good form (FIG. 3C black bar, spherical, smooth surface and dense inside), medium form (FIG. 3 gray bar, spherical, forming cyst), and bad form (FIG. 3C white bar, not spherical, collapsed) and quantified.
as §1, with “μM 1-monothioglycerol, 1× Chemically” for “μM 1-monothioglycerol, and 1× Chemically”, “20 μM) and TGFβR inhibitor (SB431542, 5 μM) were added to” for “20 μM) was added to”, “of Y27632 and supplemented with a TGFβR inhibitor (SB431542, 5 μM) was added.” for “of Y27632 was added.”
The form of the thus-prepared cell aggregates on day 6 after the start of suspension culturing was observed according to the method described in Example 3.
The above human iPS cells were treated with the cell dispersion solution by using TrypLE Select (Life Technologies), further dispersed into single cells by pipetting operation, and the above human iPS cells dispersed into single cells were suspended in 100 μl of a serum-free medium at 1.2×10^4 cells per well of a non-cell-adhesive 96-well culture plate (PrimeSurface 96V-bottom plate, manufactured by SUMITOMO BAKELITE), and subjected to suspension culturing at 37° C., 5% CO2. As the serum-free medium (gfCDM+KSR) therefor, a serum-free medium which is a 1:1 mixture of F-12 medium and IMDM medium supplemented with 10% KSR, 450 μM 1-monothioglycerol and 1× Chemically defined lipid concentrate was used. […]

[1] = SB431542 5 μM in step 1 and in step 2 and step 3
[2] = no preconditioning in step 1, SB431542 5 μM added in step 2 and step 3

NC(=O)c1ccc(-c2nc(-c3ccc4c(c3)OCO4)c(-c3ccccn3)[nH]2)cc1 [SB431542, 4-(5-benzol[1,3]dioxol-5-yl-4-pyridin-2-yl-1H-imidazol-2-yl)-benzamide]
shape of cell aggregate compared with no preconditioning (SB431542 5 μM 1 day in step 1, day 6 of suspension culturing): better shape | cell aggregates with a bad form (not spherical, collapsed) [1]: about 0% | cell aggregates with a good form (spherical, smooth surface and dense inside) [1]: about 100% | cell aggregates with a medium form (spherical, forming cyst) [1]: about 0% | cell aggregates with a bad form (not spherical, collapsed) (SB431542 5 μM in step 1 only): about 0% | cell aggregates with a good form (spherical, smooth surface and dense inside) (SB431542 5 μM in step 1 only): about 100% | cell aggregates with a medium form (spherical, forming cyst) (SB431542 5 μM in step 1 only): about 0% | cell aggregates with a bad form (not spherical, collapsed) [2]: about 30% | cell aggregates with a good form (spherical, smooth surface and dense inside) [2]: about 10% | cell aggregates with a medium form (spherical, forming cyst) [2]: about 60%
